# Where no end group is shown, it is not given here.
# System: blood-brain barrier (BBB)
# Format: in vivo, male CD-1 mice
compound,measurement,setting,value
triolein,enhancement of I-Ghr transport across the BBB,"triolein 7.2 mg/mouse iv with I-Ghr, 8 week old mice",over 70%
CNC[C@H](O)c1ccc(O)c(O)c1 [Epinephrine],effect on I-Ghr uptake across the BBB,"epinephrine 40 nmol/mouse in the iv injection, 8 week old mice",no effect
"I-Ghr: Human ghrelin radioactively labeled with 131I by the chloramine-T method, purified by reverse-phase HPLC (GSSFLSPEHQRVQQRKESKKPPAKLQPR; ends and bridges not checked; also: 131I radiolabel, site not given here; UniProt Q9UBU3 24-51, looked up)",effect of 48 h fasting on Ki of I-Ghr vs fed animals,"mouse, in vivo, iv",arithmetic increase

# Reference: publication PMC2586070 (Peptides, 2008)
